Key:
[1] = molecular target: Echovirus 3C recombinant protease (Echovirus 30, UniProt Q9WN78); test: Echovirus 3C recombinant protease activity with inhibitors or inhibitor cocktails (Camb2); assay type: biochemical
Experimental: Phosphoramidon is a strong inhibitor of many bacterial Metalloendoproteinases, thermolysin, and elastase, but a weak inhibitor of collagenase. […] Phosphoramidon was tested using the Echovirus 3C recombinant and pneumococcus (types 6B and 23F) spiking systems.
(§1) The experiment shown in FIG. 22A was performed in the presence of Echo recombinant protease (50 nM) or in the presence of two different strains of pneumococcus 6B and 23F (lysate 1 μl). The inhibitory effect was measured in the presence/absent of Phosphoramidon (20 uM).
The experiment shown in FIG. 22B was performed in the presence of Echo recombinant protease (1:18), in the presence of meningococcus (lysate 3 ul) or in the presence of blood (10 ul).
Enterovirus 3C protease (Echo), WBC lysate (corresponding to 2×10^3 cells per test), Pneomococc lysate (corresponding to 1×10^6 bacteria per test) and Meningococc lysate (corresponding to 1×10^8 bacteria per test) (5 ul each) were spiked into artificial-CSF (45 ul), followed by the addition of the indicated inhibitor cocktails (5 ul each): I8, I9a=I8+Phosphoramidon (90 μM), I9b=I8+2-6-pyridinedicarboxylic acid (2.5 mM) and I10=I8+Phosphoramidon+2-6-pyridinedicarboxylic acid. The samples with the indicated inhibitor cocktails were incubated at RT for 2.5 min followed by the addition of 50 ul 2× reaction buffer containing the substrate camb2 (final concentration 2 μM). […]

meningococcus = test: Meningococcus lysate spiking system (Camb2 cleavage); assay type: biochemical, Neisseria meningitides; settings: 2,6-pyridinedicarboxylic acid 2.5 mM; lysate 3 ul
Text: (§2) There have been no reports of co-infection of viral and bacterial meningitis. Thus, a test for viral meningitis infection implies a negative result for bacterial meningitis. However, CSF samples infected with bacterial meningitis may have background non-specific activity that leads to false positive results in tests for enterovirus, thereby confusing the results. Background non specific activity in CSF samples could be related to bacterial proteases that can cleave the substrate, leading to a positive signal. The most frequent bacterial meningitis found in CSF include: Streptococcus pneumonia, Neisseria meningitides (meningococc), Haemophilus influenza and Klebsiella pneumonia. Accordingly, Pneumococcus (Streptococcus pneumonia, two different strains 6B and 23F) and meningococcus (Neisseria meningitides) were spiked to simulate the background non specific activity observed in CSF samples and to identify inhibitors to reduce it. A total of more than 40 inhibitors from different groups of inhibitors were tested.
The experiment shown in FIG. 22B was performed in the presence of Echo recombinant protease (1:18), in the presence of meningococcus (lysate 3 ul) or in the presence of blood (10 ul). […]

blood = settings: 2,6-pyridinedicarboxylic acid 2.5 mM; blood 10 ul
pneumococcus 6B = test: Pneumococcus 6B lysate spiking system (Camb2 cleavage); assay type: biochemical, Streptococcus pneumonia
Text: as §2, §1

pneumococcus 23F = test: Pneumococcus 23F lysate spiking system (Camb2 cleavage); assay type: biochemical, Streptococcus pneumonia
Text: as §2, §1

Enterovirus 3C protease = test: Enterovirus assay in clinical CSF samples (vs RT-PCR); assay type: biochemical; settings: bacterial samples 23-25; new assay conditions
Experimental: CSF samples obtained from two clinical sites, were tested for presence of enterovirus according to the method of the invention but before the assay conditions were optimized. The samples were also tested with a combination of RT-PCR and other clinical parameters. […] Samples were considered hemolytic if red blood cell (RBC) count was above 100/ul (for the one set) or if the sample's color was reddish (for the other set, RBC count not provided).
Samples whose reaction rate exceeded the cutoff value were considered positive, and those below this value were considered negative.
Each measurement was performed by using 50 uL of CSF sample. 5 ul of inhibitor cocktail (I8) was added to the samples and incubated for 2.5 min. The reaction was initiated by the addition of 50 uL 2× reaction buffer (“2× RB”, 50 mM HEPES pH7.5, 1.8M Na2SO4, 300 mM NaCl, 10% Glycerol, 10 mM EDTA and 10 mM EGTA each) containing the substrate camb2 (final concentration 2 uM).
Thaw samples at room temperature for 30 min in a biological hood. • 2. Prepare assay layout according to the number of samples to be run in the BMG fluorimeter and the well composition shown in Table 54
Prepare sufficient amount of inhibitor cocktail I10 (150 ul for 24 wells). • 4. […] Add Echo protease to p.c. (positive control) wells. • 6. […] Add inhibitor cocktail to all wells. • 8. Add 50 ul 2× RB+substrate to all the wells. • 9. […]

[2] = Phosphoramidon 20 uM, lysate 1 μl
[3] = at least three independent experiments

Sequence of Echovirus 3C recombinant protease (Q9WN78 1550-1732): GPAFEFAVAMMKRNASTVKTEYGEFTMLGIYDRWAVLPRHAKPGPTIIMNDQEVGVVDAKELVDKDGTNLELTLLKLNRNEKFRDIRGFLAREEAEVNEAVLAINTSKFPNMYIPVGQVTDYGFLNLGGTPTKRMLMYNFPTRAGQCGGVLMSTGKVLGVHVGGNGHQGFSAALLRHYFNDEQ

Compound | inhibition at 2500 µM [1] [%] | inhibition of meningococcus activity (meningococcus) [%] | inhibition of blood activity (blood) [%] | inhibition at 20 µM ([1]; Phosphoramidon 20 uM, Echo recombinant protease 50 nM) [%] | inhibition of pneumococcus activity (pneumococcus 6B; [2]) [%] | inhibition of pneumococcus activity (pneumococcus 6B; [3]) [%] | inhibition of pneumococcus activity (pneumococcus 23F; [2]) [%] | inhibition of pneumococcus activity (pneumococcus 23F; [3]) [%] | effect on unspecific background activity of bacterial CSF samples (Enterovirus 3C protease)
O=C(O)c1cccc(C(=O)O)n1 [2,6-pyridinedicarboxylic acid] | 4.5 | 81 | 0 | – | – | – | – | – | –
CC(C)C[C@H](NP(=O)(O)O[C@@H]1O[C@@H](C)[C@H](O)[C@@H](O)[C@H]1O)C(=O)N[C@@H](Cc1c[nH]c2ccccc12)C(=O)O [Phosphoramidon] | – | – | – | 7 | 91 | ~90 | 80 | ~90 | could not abolish
